Laboratory results from PubChem BioAssay AID2060912 (Molecular Pharmacology Branch, DTP, NCI, 2025).

System: HUVEC/MSC spheroids viability
Assay: Human HUVEC/MSC cell line growth inhibition [KRAS2];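 for viability, T/C: percent of DMSO vehicle control luminescence so 100% = untreated viability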
Conditions: for IC50: curve of first compound; for viability, T/C: stronger effect = lower value
Description: Multicellular complex tumor spheroid response to RAS pathway inhibitors in combination with a targeted agents in patient-derived cell lines with oncogenic KRAS variants from multiple cancer types
A high-throughput screen of multi-cell type tumor spheroids was designed to identify active combinations of targeted small molecules and KRAS pathway inhibitors. Complex spheroids include a stromal component modeled by human endothelial cells (HUVEC) and fibroblasts modeled by human mesenchymal stem cells (MSCs). The concentration ranges selected for each drug and investigational agent were based upon clinically achievable concentrations if the clinical Cmax of the agent was known. * [This particular assayID is a followup dataset requested by reviewers of the manuscript. It is a test of the HUVEC and MSC without the tumor cells, and was conducted using different drug plates and a different plate layout.]
Compounds. The drugs and investigational agents: BI-3406 (NSC825286), BAY-293 (NSC824723), batoprotafib (TNO155; NSC825523), sotorasib (AMG 510; NSC818433), MRTX1257 (NSC819558), elimusertib (BAY 1895344; NSC800525), molibresib (GSK525762; NSC774829), temuterkib (LY3214996; NSC803410), venetoclax (NSC766270), alisertib (NSC759677), olaparib (NSC753686), talazoparib (NSC767125), erdafitinib (NSC781556), ipatasertib (NSC767898), cabozantinib (NSC761068), nintedanib (NSC756659), abemaciclib (NSC768073), docetaxel (NSC628503), trametinib (NSC758246), and sapanisertib (NSC764658) were obtained from the National Cancer Institute (NCI) Developmental Therapeutics Program Chemical Repository. The FDA-approved anticancer drug set is available from the Developmental Therapeutics Program. […] The stock solutions were prepared in dimethyl sulfoxide (DMSO, Sigma-Aldrich, St. Louis, MO, cat. D2650) at 800-fold the tested concentration and stored at -70 degrees C prior to their use. All drugs and investigational agents were tested over a range starting from a high concentration at or near the clinical Cmax and decreasing in half-log increments. If the clinical Cmax for an agent had not been determined, the highest concentration tested was 10 microM.
Cell Culture. All cells were maintained in an incubator at 37 degrees C and 5% CO2 with 95% humidity. The PDC lines were cultured according to standard operating procedures established by the NCI PDMR (https://pdmr.cancer.gov/sops/default.htm). Briefly, all PDCs were thawed and cultured in Matrigel-coated flasks prepared with a working solution of 1X Ham's F-12 nutrient mix, without supplementation (Invitrogen, Waltham, MA, cat. 11765054), 100 U/mL penicillin-streptomycin (Invitrogen, cat. 15140122), and 2.5% Matrigel (Corning Inc., Corning, NY, cat. 354248) for the first three passages. All PDCs were cultured in complete DMEM/F-12 media containing advanced DMEM/F-12 (Invitrogen, cat. 12634028), 4.9% defined fetal bovine serum, heat inactivated (HyClone Laboratories Inc., Logan, UT, cat. SH30070.03HI), 389 ng/mL hydrocortisone (Sigma-Aldrich, cat. H4001), 9.7 ng/mL human EGF recombinant protein (Invitrogen, cat. PHG0313), 23.4 microg/mL adenine (Sigma-Aldrich, cat. A2786), 97.3 U/mL penicillin-streptomycin (Invitrogen, cat. 15140122), 1.9 mM L-glutamine (Invitrogen, cat. 25030081), and 9.7 microM Y-27632 dihydrochloride (Tocris Bioscience, Bristol, United Kingdom, cat. 1254). The PDCs were cultured in complete DMEM/F12 media without 9.7 microM Y-27632 dihydrochloride for at least two passages prior to the screen. The established cell line HOP-62 was cultured in RPMI 1640 medium, HEPES (Invitrogen, cat. 22400105) with 10% defined fetal bovine serum (HyClone Laboratories Inc., cat. SH30070.03) and 2 mM L-glutamine (Invitrogen, cat. 25030081). The pooled donor HUVEC were cultured in endothelial cell growth medium 2 (PromoCell, Heidelberg, Germany, cat. C-22011) and the hMSC were cultured in mesenchymal stem cell growth medium 2 (PromoCell, cat. C-28009). […]

[1] = second compound 0.0316 µM, first compound 0.0316 µM
[2] = second compound 0.0316 µM, first compound 0.1 µM
[3] = second compound 0.0316 µM, first compound 0.316 µM
[4] = second compound 0.0316 µM, first compound 1 µM
[5] = second compound 0.0316 µM, first compound 3.16 µM
[6] = second compound 0.0316 µM, first compound 10 µM
[7] = second compound 0.1 µM, first compound 0.0316 µM
[8] = second compound 0.1 µM, first compound 0.1 µM
[9] = second compound 0.1 µM, first compound 0.316 µM
[10] = second compound 0.1 µM, first compound 1 µM
[11] = second compound 0.1 µM, first compound 3.16 µM
[12] = second compound 0.1 µM, first compound 10 µM
[13] = second compound 0.316 µM, first compound 0.0316 µM
[14] = second compound 0.316 µM, first compound 0.1 µM
[15] = second compound 0.316 µM, first compound 0.316 µM
[16] = second compound 0.316 µM, first compound 1 µM
[17] = second compound 0.316 µM, first compound 3.16 µM
[18] = second compound 0.316 µM, first compound 10 µM
[19] = second compound 1 µM, first compound 0.0316 µM
[20] = second compound 1 µM, first compound 0.1 µM
[21] = second compound 1 µM, first compound 0.316 µM
[22] = second compound 1 µM, first compound 1 µM
[23] = second compound 1 µM, first compound 3.16 µM
[24] = second compound 1 µM, first compound 10 µM
[25] = second compound 3.16 µM, first compound 0.0316 µM
[26] = second compound 3.16 µM, first compound 0.1 µM
[27] = second compound 3.16 µM, first compound 0.316 µM
[28] = second compound 3.16 µM, first compound 1 µM
[29] = second compound 3.16 µM, first compound 3.16 µM
[30] = second compound 3.16 µM, first compound 10 µM
[31] = second compound 10 µM, first compound 0.0316 µM
[32] = second compound 10 µM, first compound 0.1 µM
[33] = second compound 10 µM, first compound 0.316 µM
[34] = second compound 10 µM, first compound 1 µM
[35] = second compound 10 µM, first compound 3.16 µM
[36] = second compound 10 µM, first compound 10 µM

COC(=O)c1ccc2c(C(=Nc3ccc(N(C)C(=O)CN4CCN(C)CC4)cc3)c3ccccc3)c(O)[nH]c2c1 + C=CC(=O)N1CCN(c2nc(=O)n(-c3c(C)ccnc3C(C)C)c3nc(-c4c(O)cccc4F)c(F)cc23)C(C)C1
IC50 (second compound 0.0316 µM): 2.67 µM
IC50 (second compound 0.1 µM): 2.77 µM
IC50 (second compound 0.316 µM): 3.64 µM
IC50 (second compound 1 µM): 3.14 µM
IC50 (second compound 3.16 µM): 3.92 µM
IC50 (second compound 10 µM): 2.42 µM
viability, T/C [1]: 92.2%
viability, T/C [2]: 85.4%
viability, T/C [3]: 85.9%
viability, T/C [4]: 61.6%
viability, T/C [5]: 51.7%
viability, T/C [6]: 3.33%
viability, T/C [7]: 86.8%
viability, T/C [8]: 101%
viability, T/C [9]: 99.8%
viability, T/C [10]: 66%
viability, T/C [11]: 50.3%
viability, T/C [12]: 0.39%
viability, T/C [13]: 79.2%
viability, T/C [14]: 87.9%
viability, T/C [15]: 96.2%
viability, T/C [16]: 83.4%
viability, T/C [17]: 56.5%
viability, T/C [18]: 3.54%
viability, T/C [19]: 88.4%
viability, T/C [20]: 101%
viability, T/C [21]: 115%
viability, T/C [22]: 75%
viability, T/C [23]: 52.5%
viability, T/C [24]: 0.39%
viability, T/C [25]: 94.3%
viability, T/C [26]: 149%
viability, T/C [27]: 126%
viability, T/C [28]: 80.5%
viability, T/C [29]: 67.8%
viability, T/C [30]: 0.46%
viability, T/C [31]: 90.2%
viability, T/C [32]: 102%
viability, T/C [33]: 145%
viability, T/C [34]: 85.4%
viability, T/C [35]: 39.4%
viability, T/C [36]: 1.51%

O=C(c1cc(Cc2n[nH]c(=O)c3ccccc23)ccc1F)N1CCN(C(=O)C2CC2)CC1 + C=CC(=O)N1CCN(c2nc(=O)n(-c3c(C)ccnc3C(C)C)c3nc(-c4c(O)cccc4F)c(F)cc23)C(C)C1
IC50 (second compound 0.0316 µM): > 10 µM
IC50 (second compound 0.1 µM): > 10 µM
IC50 (second compound 0.316 µM): > 10 µM
IC50 (second compound 1 µM): > 10 µM
IC50 (second compound 3.16 µM): > 10 µM
IC50 (second compound 10 µM): > 10 µM
viability, T/C [1]: 104%
viability, T/C [2]: 109%
viability, T/C [3]: 125%
viability, T/C [4]: 85.1%
viability, T/C [5]: 95%
viability, T/C [6]: 104%
viability, T/C [7]: 114%
viability, T/C [8]: 107%
viability, T/C [9]: 95.3%
viability, T/C [10]: 107%
viability, T/C [11]: 133%
viability, T/C [12]: 99.2%
viability, T/C [13]: 112%
viability, T/C [14]: 122%
viability, T/C [15]: 98.2%
viability, T/C [16]: 114%
viability, T/C [17]: 115%
viability, T/C [18]: 105%
viability, T/C [19]: 128%
viability, T/C [20]: 104%
viability, T/C [21]: 124%
viability, T/C [22]: 120%
viability, T/C [23]: 126%
viability, T/C [24]: 118%
viability, T/C [25]: 148%
viability, T/C [26]: 118%
viability, T/C [27]: 146%
viability, T/C [28]: 137%
viability, T/C [29]: 116%
viability, T/C [30]: 125%
viability, T/C [31]: 127%
viability, T/C [32]: 140%
viability, T/C [33]: 145%
viability, T/C [34]: 108%
viability, T/C [35]: 126%
viability, T/C [36]: 120%
